According to patent publication US20190209501A1, “COMPOSITIONS AND METHODS OF USE OF BETA-HYDROXY-BETA-METHYLBUTYRATE (HMB) […] IN[…]” (Texas Tech University Office of Research Commercialization, priority 2018, published 2019):

Columns and labels:
[1] = Vascular assessments (blood pressure, aortic pulse wave velocity); assay type: in vivo, human; parameters: Pulse Wave Velocity: unit not given here; settings: for Aortic Diastolic Pressure / Aortic Systolic Pressure / Brachial Diastolic Pressure / Brachial Systolic Pressure / Heart Rate / Pulse Wave Velocity: mean ± SE; for Aortic Diastolic Pressure Δ / Aortic Diastolic Pressure Δ (%) / Aortic Systolic Pressure Δ / Aortic Systolic Pressure Δ (%) / Brachial Diastolic Pressure Δ / Brachial Diastolic Pressure Δ (%) / Brachial Systolic Pressure Δ / Brachial Systolic Pressure Δ (%) / Heart Rate Δ / Heart Rate Δ (%) / Pulse Wave Velocity Δ / Pulse Wave Velocity Δ (%): change baseline to W 8; for Aortic Diastolic Pressure ES (d) / Aortic Systolic Pressure ES (d) / Brachial Diastolic Pressure ES (d) / Brachial Systolic Pressure ES (d) / Heart Rate ES (d) / Pulse Wave Velocity ES (d): effect size
Experimental: Brachial blood pressure was measured using an automated cuff-based sphygmomanometer (HEM-907, Omron Healthcare. Kyoto, Japan). From this measurement, mean blood pressure and diastolic blood pressure were used to calibrate ensemble-averaged pressure waveforms measured at the left radial artery using applanation tonometry (SphygmoCor PVx, AtCor Medical, Itasca, Ill., USA). A general transfer function was also used to synthesize a central aortic waveform from the radial artery measurement. Wave separation analysis of the aortic pressure waveform allowed estimation of aortic pulse wave velocity (PWV), an index of arterial stiffness. Each participant remained supine for ≥10 min prior to vascular assessment. Duplicate measurements were obtained and averaged for analysis.

[2] = Salivary cortisol awakening response; assay type: in vivo, human; parameters: Cortisol Awakening Response (AUC) / Cortisol Awakening Response (AUC) Δ: unit not given here; settings: for Average Cortisol / Cortisol Awakening Response (AUC): mean ± SE; for Average Cortisol Δ / Average Cortisol Δ (%) / Cortisol Awakening Response (AUC) Δ / Cortisol Awakening Response (AUC) Δ (%): change baseline to W 8; for Average Cortisol ES (d) / Cortisol Awakening Response (AUC) ES (d): effect size
Description: (§1) At baseline and after 4 and 8 weeks of the intervention, participants completed two testing sessions: (1) a morning assessment conducted after an overnight fast for assessment of body composition, metabolism, vascular measures and subjective factors: and (2) an afternoon assessment of muscular performance, conducted in the non-fasted state. For morning assessments, participants reported to the laboratory after abstention from eating, drinking, exercising and utilizing caffeine or nicotine for ≥8 hours. Participants were interviewed to confirm adherence to these pre-assessment restrictions. The actual abstention from exercise was ≥14 hours due to the scheduling of exercise sessions. Participants reported to the laboratory wearing athletic clothing, and all metal and accessories were removed from the body prior to testing. Each participant voided her bladder and provided a urine sample. Urine samples were assessed for urine specific gravity (USG) using a digital refractometer (PA201X-093. Misco, Solon, Ohio. USA). Additionally, a standard urinary HCG test was performed to confirm that each participant was not pregnant. Finally, urinary samples were frozen at −80° C. for assessment of urinary HMB content after study unblinding. After voiding, each participant's body mass (BM) and height were determined via digital scale with stadiometer (Seca 769, Hamburg, Germany). Blood draws were performed at Texas Tech University Student Health Services after an overnight fast, and participants completed at-home saliva collections for assessment of the cortisol awakening response (CAR).
Each participant was familiarized with the saliva collection procedures at the baseline visit. Saliva collection took place using the passive drool method, with allows for saliva to be transferred from the mouth to a small vial according to manufacturer recommendations (36). Three saliva samples during the baseline period for assessment of the cortisol awakening response (CAR; the characteristic increase in cortisol concentrations upon waking (37)). These samples were collected at the participant's home 0, 30 and 45 minutes after waking. The importance of collecting the saliva sample exactly as instructed was strongly emphasized to research participants. Participants were provided with reminder signs to place by the bedside and were instructed to set alarms for saliva collection timepoints. Upon obtaining the sample, each participant was instructed to place the vial in the freezer until it could be transported to the laboratory. Upon delivery to the lab, each vial of saliva was stored at −80° C. until shipment to a saliva testing facility for analysis (Salimetrics LLC, Carlsbad, Calif., USA). For the analysis, samples were thawed to room temperature, vortexed, and then centrifuged for 15 minutes at approximately 3,000 RPM (1,500×g) immediately before performing the assay. Samples were tested for salivary cortisol using a high sensitivity enzyme immunoassay (Cat. No. 1-3002). Sample test volume was 25 μl of saliva per determination. The assay has a lower limit of sensitivity of 0.007 μg/dL, a standard curve range from 0.012-3.0 μg/dL, and an average intra-assay coefficient of variation of 4.60%, and an average inter-assay coefficient of variation 6.00%, which meets the manufacturers' criteria for accuracy and repeatability in Salivary Bioscience. and exceeds the applicable NIH guidelines for Enhancing Reproducibility through Rigor and Transparency.

[3] = Urinary HMB concentrations; assay type: in vivo, human; settings: for Urinary HMB concentration, Intervention: during intervention, 3 g/d calcium HMB
Description: as §1

[4] = 3 g/d Calcium-HMB without intermittent fasting + RT, cited from earlier work

CC(C)(O)CC(=O)O [TRFHMB, β-hydroxy-β-methylbutyrate]
Aortic Diastolic Pressure ([1]; ITT, Baseline): 68 ± 2 mmHg | Aortic Systolic Pressure ([1]; ITT, Baseline): 96 ± 2 mmHg | Brachial Diastolic Pressure ([1]; ITT, Baseline): 67 ± 1 mmHg | Brachial Systolic Pressure ([1]; ITT, Baseline): 112 ± 2 mmHg | Heart Rate ([1]; ITT, Baseline): 62 ± 3 bpm | Pulse Wave Velocity ([1]; ITT, Baseline): 5.5 ± 0.2 | Aortic Diastolic Pressure ([1]; ITT, W 8): 64 ± 2 mmHg | Aortic Systolic Pressure ([1]; ITT, W 8): 94 ± 2 mmHg | Brachial Diastolic Pressure ([1]; ITT, W 8): 63 ± 2 mmHg | Brachial Systolic Pressure ([1]; ITT, W 8): 110 ± 2 mmHg | Heart Rate ([1]; ITT, W 8): 63 ± 3 bpm | Pulse Wave Velocity ([1]; ITT, W 8): 5.7 ± 0.1 | Aortic Diastolic Pressure Δ ([1]; ITT): −4 mmHg | Aortic Diastolic Pressure Δ (%) ([1]; ITT): −6% | Aortic Systolic Pressure Δ ([1]; ITT): −2 mmHg | Aortic Systolic Pressure Δ (%) ([1]; ITT): −2% | Brachial Diastolic Pressure Δ ([1]; ITT): −4 mmHg | Brachial Diastolic Pressure Δ (%) ([1]; ITT): −6% | Brachial Systolic Pressure Δ ([1]; ITT): −2 mmHg | Brachial Systolic Pressure Δ (%) ([1]; ITT): −2% | Heart Rate Δ ([1]; ITT): 1 bpm | Heart Rate Δ (%) ([1]; ITT): 2% | Pulse Wave Velocity Δ ([1]; ITT): 0.2 | Pulse Wave Velocity Δ (%) ([1]; ITT): 4% | Aortic Diastolic Pressure ES (d) ([1]; ITT): −0.64 | Aortic Systolic Pressure ES (d) ([1]; ITT): −0.46 | Brachial Diastolic Pressure ES (d) ([1]; ITT): −0.63 | Brachial Systolic Pressure ES (d) ([1]; ITT): −0.22 | Heart Rate ES (d) ([1]; ITT): 0.07 | Pulse Wave Velocity ES (d) ([1]; ITT): 0.37 | Aortic Diastolic Pressure ([1]; PP, Baseline): 68 ± 2 mmHg | Aortic Systolic Pressure ([1]; PP, Baseline): 97 ± 2 mmHg | Brachial Diastolic Pressure ([1]; PP, Baseline): 67 ± 2 mmHg | Brachial Systolic Pressure ([1]; PP, Baseline): 111 ± 2 mmHg | Heart Rate ([1]; PP, Baseline): 62 ± 5 bpm | Pulse Wave Velocity ([1]; PP, Baseline): 5.5 ± 0.3 | Aortic Diastolic Pressure ([1]; PP, W 8): 65 ± 2 mmHg | Aortic Systolic Pressure ([1]; PP, W 8): 95 ± 2 mmHg | Brachial Diastolic Pressure ([1]; PP, W 8): 64 ± 2 mmHg | Brachial Systolic Pressure ([1]; PP, W 8): 112 ± 2 mmHg | Heart Rate ([1]; PP, W 8): 62 ± 5 bpm | Pulse Wave Velocity ([1]; PP, W 8): 5.8 ± 0.2 | Aortic Diastolic Pressure Δ ([1]; PP): −3 mmHg | Aortic Diastolic Pressure Δ (%) ([1]; PP): −4% | Aortic Systolic Pressure Δ ([1]; PP): −2 mmHg | Aortic Systolic Pressure Δ (%) ([1]; PP): −2% | Brachial Diastolic Pressure Δ ([1]; PP): −3 mmHg | Brachial Diastolic Pressure Δ (%) ([1]; PP): −4% | Brachial Systolic Pressure Δ ([1]; PP): 1 mmHg | Brachial Systolic Pressure Δ (%) ([1]; PP): 1% | Heart Rate Δ ([1]; PP): 0 bpm | Heart Rate Δ (%) ([1]; PP): 0% | Pulse Wave Velocity Δ ([1]; PP): 0.3 | Pulse Wave Velocity Δ (%) ([1]; PP): 5% | Aortic Diastolic Pressure ES (d) ([1]; PP): −0.53 | Aortic Systolic Pressure ES (d) ([1]; PP): −0.20 | Brachial Diastolic Pressure ES (d) ([1]; PP): −0.49 | Brachial Systolic Pressure ES (d) ([1]; PP): 0.13 | Heart Rate ES (d) ([1]; PP): 0.06 | Pulse Wave Velocity ES (d) ([1]; PP): 0.46 | Average Cortisol ([2]; ITT, Baseline): 0.40 ± 0.07 µg/dL | Cortisol Awakening Response (AUC) ([2]; ITT, Baseline): 17.5 ± 3.2 | Average Cortisol ([2]; ITT, W 8): 0.39 ± 0.98 µg/dL | Cortisol Awakening Response (AUC) ([2]; ITT, W 8): 16.9 ± 4.0 | Average Cortisol Δ ([2]; ITT): -0.01 µg/dL | Average Cortisol Δ (%) ([2]; ITT): −3% | Cortisol Awakening Response (AUC) Δ ([2]; ITT): −0.6 | Cortisol Awakening Response (AUC) Δ (%) ([2]; ITT): −3% | Average Cortisol ES (d) ([2]; ITT): −0.04 | Cortisol Awakening Response (AUC) ES (d) ([2]; ITT): −0.05 | Average Cortisol ([2]; PP, Baseline): 0.34 ± 0.07 µg/dL | Cortisol Awakening Response (AUC) ([2]; PP, Baseline): 14.0 ± 3.3 | Average Cortisol ([2]; PP, W 8): 0.42 ± 0.1 µg/dL | Cortisol Awakening Response (AUC) ([2]; PP, W 8): 18.2 ± 4.7 | Average Cortisol Δ ([2]; PP): 0.1 µg/dL | Average Cortisol Δ (%) ([2]; PP): 24% | Cortisol Awakening Response (AUC) Δ ([2]; PP): 4.2 | Cortisol Awakening Response (AUC) Δ (%) ([2]; PP): 30% | Average Cortisol ES (d) ([2]; PP): 0.93 | Cortisol Awakening Response (AUC) ES (d) ([2]; PP): 0.64 | Urinary HMB concentration, Intervention ([3]; ITT analysis): 5033 ± 751 nmol/mL | Urinary HMB concentration, Intervention ([3]; PP analysis): 6553 ± 1117 nmol/mL | Change in urinary HMB concentrations from pre-intervention to intervention ([3]; both ITT and PP analyses): increased significantly | BF % after 4 weeks ([4]; females n=18, from 23.7±1.1, nonsignificant): 23.0±1.2% | BF % 4-week Δ-change [4]: −0.7%
